Measurements reported in EP4583874B1, “MULTITARGET NUCLEAR RECEPTOR LIGANDS BASED ON 2-(4-(QUINOLIN-2-YLOXY)PHENOXY)PROPANOIC ACID AND 2-(4-(QUINOXALIN-2-YLOXY)PHENOXY)PROPANOIC ACID FOR THE TREATMENT OF METABOLIC AND LIVER DISEASES” (CHARLES UNIVERSITY, FACULTY OF PHARMACY IN HRADEC KRALOVE, priority 2022, dated 2024).

Assays:
Format in all cases: cell-based
TGR5 = target: T1, TGR5 (Homo sapiens, UniProt Q8TDU6); assay: TGR5 luciferase reporter assay; conditions: relative activation to LCA 10 µM (100%), negative value indicates inverse agonism
T1 sequence (Q8TDU6 1-330): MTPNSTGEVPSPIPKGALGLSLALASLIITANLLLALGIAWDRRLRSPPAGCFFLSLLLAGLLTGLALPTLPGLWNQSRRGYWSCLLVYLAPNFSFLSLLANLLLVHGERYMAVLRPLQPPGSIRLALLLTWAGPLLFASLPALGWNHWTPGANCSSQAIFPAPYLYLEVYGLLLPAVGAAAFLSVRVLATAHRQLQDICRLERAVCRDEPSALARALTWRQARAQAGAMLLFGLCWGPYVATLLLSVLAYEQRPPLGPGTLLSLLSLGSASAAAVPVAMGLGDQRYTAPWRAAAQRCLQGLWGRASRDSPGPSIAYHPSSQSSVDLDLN

human LXRα = target: T2, human LXRα (Homo sapiens, UniProt Q13133); assay: LXRα luciferase reporter gene assay, inhibition of activation by GW3965 (pGAL4-LXRα / pGL5-UAS 9x) in HepG2 cells; conditions: HepG2, 24 h; read-out: LXRα antagonism
T2 construct: DNA constructs encoding human LBD domains of human PPARα, PPARγ, of LXRα (pGAL4-PPARα, pGAL4-PPARγ, pGAL4-LXRα); expressed in transfected cells; host or cells: HepG2
T2 sequence (Q13133 209-447 limits assumed): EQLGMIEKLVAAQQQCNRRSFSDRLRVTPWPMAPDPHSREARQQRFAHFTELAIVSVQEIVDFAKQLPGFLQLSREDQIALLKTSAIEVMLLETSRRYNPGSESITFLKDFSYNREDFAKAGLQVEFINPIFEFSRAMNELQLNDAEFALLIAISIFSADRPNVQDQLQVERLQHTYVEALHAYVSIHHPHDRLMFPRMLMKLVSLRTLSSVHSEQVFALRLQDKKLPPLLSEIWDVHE
Procedure: Bezafibrate, GW7647 and WY14643 are known PPARα ligands. […] GW3965 is known high-affinity LXRα ligand.
Inverse agonistic/antagonistic activities of tested compounds to LXRα receptor activated by the LXRα agonist GW3965(10 µM). […] Negative value indicates inverse agonism.
(§1) In HepG2 cells, luciferase gene reporter assays have been performed with the transiently transfected reporter gene luciferase construct with the UAS yeast binding site interacting with GAL4 protein (pGL5-UAS 9x, Promega). DNA constructs encoding human LBD domains of human PPARα, PPARγ, of LXRα (pGAL4-PPARα, pGAL4-PPARγ, pGAL4-LXRα) have been cotransfected with the reporter construct. For FXR, FXRE-luc construct with FXR response elements upstream of Firefly luciferase has been used together with an expression construct for human FXR for HepG2 cells transfection. HepG2 cells were then treated with compounds of the invention for 24 h.

human PPARα = target: T3, human PPARα (Homo sapiens, UniProt Q07869); assay: PPARα responsive luciferase reporter gene assay (pGAL4-PPARα / pGL5-UAS 9x) in HepG2 cells; conditions: relative activation to fenofibrate 10 µM (100%), HepG2, 24 h, negative value indicates inverse agonism
T3 construct: DNA constructs encoding human LBD domains of human PPARα, PPARγ, of LXRα (pGAL4-PPARα, pGAL4-PPARγ, pGAL4-LXRα); expressed in transfected cells; host or cells: HepG2
T3 sequence (Q07869 239-466 limits assumed): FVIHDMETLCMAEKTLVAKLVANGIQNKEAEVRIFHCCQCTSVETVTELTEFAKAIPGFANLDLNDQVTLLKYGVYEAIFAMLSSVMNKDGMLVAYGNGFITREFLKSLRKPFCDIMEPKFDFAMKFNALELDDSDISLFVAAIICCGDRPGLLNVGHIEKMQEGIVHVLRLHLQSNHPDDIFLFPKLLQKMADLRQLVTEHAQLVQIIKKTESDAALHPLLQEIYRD
Excerpt: Bezafibrate, GW7647 and WY14643 are known PPARα ligands. […] GW3965 is known high-affinity LXRα ligand. […]
as §1

human FXR = target: T4, human FXR (Homo sapiens, UniProt Q96RI1); assay: FXR responsive luciferase reporter gene assay (FXRE-luc + human FXR expression construct) in HepG2 cells; conditions: HepG2, 24 h
T4 construct: expressed in transfected cells; host or cells: HepG2
T4 sequence (Q96RI1 1-486): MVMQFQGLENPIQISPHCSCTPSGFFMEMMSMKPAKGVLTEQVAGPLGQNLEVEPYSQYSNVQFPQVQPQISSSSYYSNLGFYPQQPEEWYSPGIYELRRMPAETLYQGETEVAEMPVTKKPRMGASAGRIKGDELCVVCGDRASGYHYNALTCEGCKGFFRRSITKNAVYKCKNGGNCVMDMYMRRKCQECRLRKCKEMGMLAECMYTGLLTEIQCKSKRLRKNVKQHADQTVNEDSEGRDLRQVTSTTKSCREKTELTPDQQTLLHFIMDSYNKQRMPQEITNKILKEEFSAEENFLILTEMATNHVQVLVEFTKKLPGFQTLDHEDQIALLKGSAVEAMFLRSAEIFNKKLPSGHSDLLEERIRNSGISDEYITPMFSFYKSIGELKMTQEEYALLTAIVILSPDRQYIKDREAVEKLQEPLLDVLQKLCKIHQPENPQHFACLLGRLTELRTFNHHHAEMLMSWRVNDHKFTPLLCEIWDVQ
Excerpt: as §1

C[C@@H](Oc1ccc(Oc2ccc3c(Cl)cccc3n2)cc1)C(=O)O [compound 37, (R)-2-(4-((5-Chloroquinolin-2-yl)oxy)phenoxy)propanoic acid]
Emax at 10 µM (TGR5): 10%
inhibition at 10 µM (human LXRα): 39%
Emax at 10 µM (human PPARα): 8%
Emax at 10 µM (human FXR): 77%
